Source: patent publication US20090053168A1, “TREATMENTS OF B-CELL PROLIFERATIVE DISORDERS” (priority 2007, published 2009)
Where “and” joins values, the source holds several entries; their conditions need not be identical. Equal values may be shown once. Read-outs that look alike come from different tables or passages of the source.

Assays:
[1] = system: RPMI-8226 cells; experiment: Anti-proliferation assay (ATPLite, 72 h), RPMI-8226; assay type: cell-based
[2] = system: H929 cells; experiment: Anti-proliferation assay (ATPLite, 72 h), H929; assay type: cell-based
[3] = system: Farage (non-Hodgkin's B cell lymphoma) cells; experiment: Anti-proliferation assay (ATPLite, 72 h), Farage; assay type: cell-based; settings: x dexamethasone
[4] = system: GA-10 (Burkitt's lymphoma) cells; experiment: Anti-proliferation assay (ATPLite, 72 h), GA-10; assay type: cell-based; settings: x dexamethasone
[5] = system: MM.1S cells; experiment: Anti-proliferation assay (ATPLite, 72 h), MM.1S; settings: for activity and synergy in antiproliferation assays: RPMI-8226, H929, MM.1S and MM.1R MM cell lines; for IC50: 2-fold dilutions; for synergy score: in combination with CGS-21680, MM.1S
[6] = system: MM.1S cells
[7] = system: OCI-ly10 DLBCL cells; experiment: Anti-proliferation assay (ATPLite, 72 h), OCI-ly10; assay type: cell-based; settings: in combination with CGS-21680
[8] = system: Karpas 422 DLBCL cells; experiment: Anti-proliferation assay (ATPLite, 72 h), Karpas 422; assay type: cell-based; settings: in combination with CGS-21680
[9] = system: SU-DHL6 DLBCL cells; experiment: Anti-proliferation assay (ATPLite, 72 h), SU-DHL6; assay type: cell-based; settings: in combination with CGS-21680
[10] = system: OPM2 cells; experiment: Anti-proliferation assay (ATPLite, 72 h), OPM2; assay type: cell-based, human; settings: for synergy score: in combination with CGS-21680, OPM-8
[11] = system: mantle cell lymphoma cell line Mino; experiment: Anti-proliferation assay (ATPLite, 72 h), Mino; assay type: cell-based, human
Protocol: (§1) All of the cell lines were cultured in RPMI-1640 media supplemented with 10% FBS except OCI Ly10 cells (IMDM media supplemented with 20% human serum). The ANBL-6 cell line culture media also contained 10 ng/ml IL-6. MM.1S, MM.1R, SU-DHL6, Karpas 422, and OCI ly10 cells were provided by the Dana Farber Cancer Institute. ANBL-6 cells were provided by Bob Orlowsli (M.D. Anderson Cancer Research Center). H929, RPMI-8226, GA-10, Farage, Mino, JVM-13, Pfeiffer, Toledo, and Kusami-1 cells were from ATCC (Cat #'s CCL-155, CRL-9068, CRL-2392 CRL-2630, CRL-3000, CRL-3003, CRL-2632, CRL-2631, and CRL-2724 respectively). MOLP-8, OPM2, EJM, and KSM-12-PE cells were from DSMZ.
(§2) Compounds were prepared in DMSO at 1000× the highest desired concentration. Master plates were generated consisting of serially diluted compounds in 2- or 3-fold dilutions in 384-well format. For single agent dose response curves, the master plates consisted of 9 individual compounds at 12 concentrations in 2- or 3-fold dilutions. For combination matrices, master plates consisted of individual compounds at 6 or 9 concentrations at 2- or 3-fold dilutions.
(§3) The average untreated well value (avg. untreated wells) is the arithmetic mean of 40 wells from the same assay plate treated with vehicle alone. Negative inhibition values result from local variations in treated wells as compared to untreated wells.
(§4) The uncertainty of each fitted parameter was estimated from the range over which the change in reduced chi-squared was less than one, or less than minimum reduced chi-squared if that minimum exceeded one, to allow for underestimated σI errors.
(§5) Single agent curve data were used to define a dilution series for each compound to, be used for combination screening in a 6×6 matrix format. […] For compounds with no detectable single agent activity, a dilution factor of 4 was used, starting from the highest achievable concentration.
(§6) The Loewe additivity model was used to quantify combination effects. Combinations were ranked initially by Additivity Excess Volume, which is defined as ADD Volume=ΣCX, CY(Idata−ILoewe). where ILoewe(CX,CY) is the inhibition that satisfies (CX/ECX)+(CY/ECY)=1, and ECX,Y are the effective concentrations at ILoewe for the single agent curves. A “Synergy Score” was also used, where the Synergy Score S=log fX log fY ΣIdata (Idata−ILoewe), summed over all non-single-agent concentration pairs, and where log fX,Y is the natural logarithm of the dilution factors used for each single agent.

[12] = system: mantle cell lymphoma cell line JVM-13; experiment: Anti-proliferation assay (ATPLite, 72 h), JVM-13; assay type: cell-based, human
Protocol: as §1, §2, §3, §4, §5, §6

[13] = system: MOLP-8 cells; experiment: Anti-proliferation assay (ATPLite, 72 h), MOLP-8; assay type: cell-based; settings: in combination with CGS-21680
[14] = system: EJM cells; experiment: Anti-proliferation assay (ATPLite, 72 h), EJM; assay type: cell-based; settings: in combination with CGS-21680
[15] = system: ANBL-6 cells; experiment: Anti-proliferation assay (ATPLite, 72 h), ANBL-6; assay type: cell-based; settings: in combination with CGS-21680
[16] = system: KSM-12-PE cells; experiment: Anti-proliferation assay (ATPLite, 72 h), KSM-12-PE; assay type: cell-based; settings: in combination with CGS-21680; KSM-12-PE
[17] = read-out: IC50 (+IL-6), MM.1S cells grown in presence of 10 ng/ml IL-6
[18] = read-out: IC50 (no IL-6), MM.1S cells grown in absence of IL-6
[19] = combination with dexamethasone, Loewe-based Synergy Score, 72 h
[20] = Homo sapiens, MM1.S, read-out: percent inhibition of cell proliferation

OC[C@H]1O[C@H](n2cnc3c(NC4CC5CCC4C5)ncnc32)[C@H](O)[C@@H]1O (stereo partly drawn) [(S)-ENBA, S-N^6-(2-endo-norbornyl)adenosine]
Synergy score with dexamethasone, RPMI-8226 [1]: 8.64
Synergy score with dexamethasone, H929 [2]: 7.82
synergy score [3]: 1.37
synergy score [4]: 1.05
Synergy score with dexamethasone, MM.1S [5]: 7.30
percent inhibition of cell proliferation ([5]; (S)-ENBA 0.173 μM alone): 14%
percent inhibition of cell proliferation ([5]; (S)-ENBA 0.519 μM alone): 14%
percent inhibition of cell proliferation ([5]; (S)-ENBA 1.56 μM alone): 50%
percent inhibition of cell proliferation ([5]; (S)-ENBA 4.67 μM alone): 49%
percent inhibition of cell proliferation ([5]; (S)-ENBA 14 μM alone): 62%
activity and synergy in antiproliferation assays [5]: active and synergistic
IC50 [5, 17]: 1530 nM
IC50 [5, 18]: 2270 nM
Percent inhibition of cell growth by (S)-ENBA ([6]; (s)-ENBA 0.17 μM, 78 nM SCH58261): 4.5%
Percent inhibition of cell growth by (S)-ENBA ([6]; (s)-ENBA 0.17 μM, 175 nM MRS1754): 9.3%
Percent inhibition of cell growth by (S)-ENBA ([6]; (s)-ENBA 0.17 μM, 178 nM DPCPX): 2.4%
Percent inhibition of cell growth by (S)-ENBA ([6]; (s)-ENBA 0.17 μM, 183 nM MRS1523): 10%
Percent inhibition of cell growth by (S)-ENBA ([6]; (s)-ENBA 0.17 μM, no antagonist): 6%
Percent inhibition of cell growth by (S)-ENBA ([6]; (s)-ENBA 0.52 μM, 78 nM SCH58261): 6%
Percent inhibition of cell growth by (S)-ENBA ([6]; (s)-ENBA 0.52 μM, 175 nM MRS1754): 10%
Percent inhibition of cell growth by (S)-ENBA ([6]; (s)-ENBA 0.52 μM, 178 nM DPCPX): 18%
Percent inhibition of cell growth by (S)-ENBA ([6]; (s)-ENBA 0.52 μM, 183 nM MRS1523): 14%
Percent inhibition of cell growth by (S)-ENBA ([6]; (s)-ENBA 0.52 μM, no antagonist): 19%
Percent inhibition of cell growth by (S)-ENBA ([6]; (s)-ENBA 1.6 μM, 78 nM SCH58261): 14%
Percent inhibition of cell growth by (S)-ENBA ([6]; (s)-ENBA 1.6 μM, 175 nM MRS1754): 50%
Percent inhibition of cell growth by (S)-ENBA ([6]; (s)-ENBA 1.6 μM, 178 nM DPCPX): 37%
Percent inhibition of cell growth by (S)-ENBA ([6]; (s)-ENBA 1.6 μM, 183 nM MRS1523): 36%
Percent inhibition of cell growth by (S)-ENBA ([6]; (s)-ENBA 1.6 μM, no antagonist): 41%
Percent inhibition of cell growth by (S)-ENBA ([6]; (s)-ENBA 4.7 μM, 78 nM SCH58261): 12%
Percent inhibition of cell growth by (S)-ENBA ([6]; (s)-ENBA 4.7 μM, 175 nM MRS1754): 47%
Percent inhibition of cell growth by (S)-ENBA ([6]; (s)-ENBA 4.7 μM, 178 nM DPCPX): 77%
Percent inhibition of cell growth by (S)-ENBA ([6]; (s)-ENBA 4.7 μM, 183 nM MRS1523): 52%
Percent inhibition of cell growth by (S)-ENBA ([6]; (s)-ENBA 4.7 μM, no antagonist): 52%
Percent inhibition of cell growth by (S)-ENBA ([6]; (s)-ENBA 14 μM, 78 nM SCH58261): 45%
Percent inhibition of cell growth by (S)-ENBA ([6]; (s)-ENBA 14 μM, 175 nM MRS1754): 71%
Percent inhibition of cell growth by (S)-ENBA ([6]; (s)-ENBA 14 μM, 178 nM DPCPX): 89%
Percent inhibition of cell growth by (S)-ENBA ([6]; (s)-ENBA 14 μM, 183 nM MRS1523): 65%
Percent inhibition of cell growth by (S)-ENBA ([6]; (s)-ENBA 14 μM, no antagonist): 68%

Cn1c2ccccc2c2c3c(c4c5ccccc5n(CCC#N)c4c21)CNC3=O [Go 6976]
synergy score [7]: 1.61
synergy score [8]: 2.91
synergy score [9]: 3.69

CCCCC#Cc1nc(N)c2ncn([C@@H]3O[C@H](C(=O)NCC)[C@@H](O)[C@H]3O)c2n1 [HE-NECA, hexynyladenosine-5′-N-ethylcarboxamide]
Synergy score with dexamethasone, RPMI-8226 [1]: 17.7
Synergy score with dexamethasone, H929 [2]: 7.62
percent inhibition of cell proliferation ([10]; HE-NECA 2.5 nM alone): 1%
percent inhibition of cell proliferation ([10]; HE-NECA 5 nM alone): 2.6%
percent inhibition of cell proliferation ([10]; HE-NECA 10 nM alone): 0.4%
percent inhibition of cell proliferation ([10]; HE-NECA 20 nM alone): 4.8%
synergy score [3]: 3.6
synergy score [4]: 1.64
percent inhibition of cell proliferation ([11]; HE-NECA 2.5 nM alone): 7.9% and 4.1%
percent inhibition of cell proliferation ([11]; HE-NECA 5 nM alone): 12%
percent inhibition of cell proliferation ([11]; HE-NECA 10 nM alone): 10% and 4.7%
percent inhibition of cell proliferation ([12]; HE-NECA 2.5 nM alone): −0.9%
percent inhibition of cell proliferation ([12]; HE-NECA 5 nM alone): −1.5%
percent inhibition of cell proliferation ([12]; HE-NECA 10 nM alone): 2.1%
percent inhibition of cell proliferation ([12]; HE-NECA 20 nM alone): −9.7%
Synergy score with dexamethasone, MM.1S [5]: 8.94
percent inhibition of cell proliferation [5]: 46% and 31%
percent inhibition of cell proliferation ([5]; HE-NECA 0.181 nM alone): −0.91%
percent inhibition of cell proliferation ([5]; HE-NECA 0.363 nM alone): 9.2%
percent inhibition of cell proliferation ([5]; HE-NECA 0.725 nM alone): 11%
percent inhibition of cell proliferation ([5]; HE-NECA 2.9 nM alone): 35%
percent inhibition of cell proliferation ([5]; HE-NECA 5.8 nM alone): 42%
percent inhibition of cell proliferation ([5]; HE-NECA 23.2 nM alone): 51%
activity and synergy in antiproliferation assays [5]: active and synergistic
IC50 [5, 17]: 0.88 nM
IC50 [5, 18]: 6.5 nM

COc1cc2c(cc1OC)-c1cc(=Nc3c(C)cc(C)cc3C)n(C)c(=O)n1CC2 [Trequinsin, 2,3,6,7-tetrahydro-9,10-dimethoxy-3-methyl-2-((2,4,6-trimethylphenyl)imino)-4H-pyrimido(6,1-a)isoquinolin-4-one]
Synergy score with dexamethasone, RPMI-8226 [1, 19]: 5.76
Synergy score with dexamethasone, H929 [2, 19]: 2.68
synergy score [13]: 4.7
synergy score [10]: 4.74
synergy score [14]: 4.81
synergy score [15]: 4.55
synergy score [16]: 2.44
synergy score [7]: 1.64
synergy score [8]: 2.11
synergy score [9]: 0.92
inhibition at 0.00462 µM [5, 20]: 10%
inhibition at 0.0139 µM [5, 20]: 1.4%
inhibition at 0.0416 µM [5, 20]: 5.5%
inhibition at 0.374 µM [5, 20]: -1.6%
inhibition at 1.12 µM [5, 20]: -6.1%
inhibition at 3.37 µM [5, 20]: 11%
inhibition at 10.1 µM [5, 20]: 33%
Synergy score with dexamethasone, MM.1S [5, 19]: 3.21
synergy score [5]: 6.71

O=C(Nc1c(Cl)cncc1Cl)c1ccc(OC(F)F)c(OCC2CC2)c1 [roflumilast]
synergy score [13]: 3.44
synergy score [10]: 0.29
synergy score [14]: 1.06
synergy score [15]: 3.73
synergy score [16]: 0.27
synergy score [7]: 3.32
synergy score [8]: 3.38
synergy score [9]: 0.93
synergy score [5]: 2.54
